Strand notation (5' to 3'): a small letter for the sugar, then the base; units joined by * are phosphorothioate-linked, units joined directly phosphodiester-linked; [ ] holds rarer units or linkages, { } end groups; capitals alone tell only the bases. m = 2'-O-methyl
Tests used:
[1] = test system: SMN2 mini-gene splicing in COS7 cells expressing r(CGG)60X; assay: SMN2 alternative pre-mRNA splicing in FXTAS cell culture model; type: cell-based
r(CGG)12-DGCR8Δ complex = settings: read-out: IC50 for disrupting binding of DGCR8Δ; in vitro; cited from earlier work
r(CGG) repeats = settings: cited from earlier work
DGCR8Δ [2] = molecular target: T1, DGCR8Δ (UniProt Q8WYQ5 493-720); assay: EMSA
T1 sequence: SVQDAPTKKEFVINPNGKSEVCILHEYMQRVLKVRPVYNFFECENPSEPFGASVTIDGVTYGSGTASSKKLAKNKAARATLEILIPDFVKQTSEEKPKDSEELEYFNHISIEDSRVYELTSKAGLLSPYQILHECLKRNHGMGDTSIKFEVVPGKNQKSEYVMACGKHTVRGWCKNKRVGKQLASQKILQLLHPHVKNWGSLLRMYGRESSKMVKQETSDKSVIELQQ

DGCR8Δ [3] = molecular target: T1, DGCR8Δ; assay: TR-FRET

For “2’OMe-PS-(CUGCGCGUAUUAGUCUACAAGUAAGGGCU-ACGACCU) (mC*mU*mG*mC*mG*mC*mG*mU*mA*mU*mU*mA*mG*mU*mC*mU*mA*mC*mA*mA*mG*mU*mA*mA*mG*mG*mG*mC*mU*mA*mC*mG*mA*mC*mC*mU) [scrambled oligonucleotide]”, the “effect on SMN2 splicing defect” value ([1]; 100 and 500 nM oligo (not 4 or 20 nM)) was “exacerbates splicing defects”.

For `Cc1c2cc[n+](CCN3CCCCC3)cc2c(C)c2c1[nH]c1ccc(O)cc12` [1a, 9-hydroxy-5,11-dimethyl-2-(2-(piperidin-1-yl)ethyl)-6H-pyrido[4,3-b]carbazol-2-ium], the “fold less potent than 2H-5 for improving pre-mRNA splicing defects” value [1] is given as roughly 10 fold, the IC50 (r(CGG)12-DGCR8Δ complex) is given as 13 ± 0.4 µM and the Kd (r(CGG) repeats) is given as 0.076 ± 0.004 µM.

CCGCCGCCGCCGCCGCCGCCGCCG (ssDNA) [d(CCG)8]: no binding (DGCR8Δ [2]).

CGGCGGCGGCGGCGGCGGCGGCGGCGGCGGCGGCGG (structured_RNA) [r(CGG)12]: binds (DGCR8Δ [3]).

CCGCCGCCGCCGCCGCCGCCGCCGCCGCCGCCGCCG (ssDNA) [d(CCG)12]: no binding (DGCR8Δ [2]).
